In patent publication EP3114111B1, “BICYCLIC PYRROLE DERIVATIVES USEFUL AS AGONISTS OF GPR120” (Janssen Pharmaceutica NV, priority 2014, dated 2015):

Experiments:
[1] = system: C57bl6 Mouse; assay: GPR120 C57bl6 Mouse IPGTT; type: in vivo, C57bl/6J Mice
Description: Male, C57bl/6J Mice were ordered in at 8 weeks of age from Jackson Labs. Individual mice weighed anywhere in the range of 25-30 grams on study day. The mice were fasted, with removal of food occurring at 7am on the morning of the study. Animals were moved into the room at 10:00am, to give them time to acclimate. Glucose (insulin syringes) was drawn up either the night before or the morning of the study. Glucose was dosed (IP) at 1.5g/kg at 7.5ml/kg (20% glucose straight TEKNOVA, 250ml sterile bottle w/ catalogue number G0525). Test compounds were kept spinning and were only drawn into the syringes prior to study commencement. Animals were bled via tail snip to determine basal glucose levels prior to dosing of treatments. An Ascensia BREEZE Blood Glucose Monitoring System by Bayer (using unique 10-test disks) was used for determining glucose levels. The bleeds started at approximately 12:45pm and dosing started, at 1-minute intervals, immediately after. All groups were dosed 30 minutes prior to glucose administration at a dose volume of 10ml/kg (the dose volume was calculated separately for each individual animal). Thirty minutes after the first dose animals were bled again for a second baseline, or T=0, and immediately dosed with glucose via an i.p. injection. The exact dose volume for glucose was also calculated separately for each individual animal. Glucose measurements were taken at -30min prior to compound dose, at t=0 (immediately prior to glucose dose), and at 15, 30, 45, 60, 90min post glucose dose.
Glucose values were entered into an Excel sheet and graphed in GraphPad Prism. The following were calculated from Prism: Change from -30 to 0 BSLN Glucose, Raw Glucose AUC -30 to 90min, Delta Glucose AUC -30 to 90min, Raw Glucose AUC 0 to 90min, Delta Glucose AUC 0 to 90min.

[2] = system: DIO Mice; assay: GPR120 DIO Mice OGTT Screening; type: in vivo, C57BI6 mice; conditions: for DIO Lowering Glucose AUC: DIO mice OGTT; for Lowering Glucose AUC: DIO Dose Response
Description: 18-22 week old, C57BI6 mice on a high fat diet (60% HFD) for 12-16 weeks (ave. body weight ∼ 37-41g) were fasted for 6hr, with removal of food occurring at 7 am on the morning of the study. The animals were sorted into treatment groups the day before the study by body weight. Animals outside the bounds of ∼30-50g were left out of the study. The animals had been handled and shammed a total of 5-8 days (1-3 days immediately prior to the study). Glucose (in 1ml syringes) was drawn up the morning of the study. Test compounds were kept spinning and were only drawn into 1ml syringes prior to study commencement. Animals were bled via tail snip to determine basal glucose levels prior to dosing of treatments. An Ascensia BREEZE Blood Glucose Monitoring System by Bayer was used for determining glucose levels.
Animals were moved into the testing room at ∼9-11am, to yield them time to acclimate. The bleeds and dosing started at approximately 1pm in 30-second intervals per animal. All groups were dosed 30 minutes prior to glucose administration at a dose volume of 10ml/kg (the dose volume was calculated separately for each individual animal). Test compounds were administered at two or more of the following dosages: 0.1 mg/kg, 0.3 mg/kg, 1 mg/kg, 3 mg/kg, 10 mg/kg and 30 mg/kg.
Thirty minutes after the first dose (with test compound) animals were bled again for a second baseline, or T=0, and immediately dosed with glucose (20% solution; TEKNOVA, 250ml sterile bottle w/ catalogue number G0525) via a PO injection. The exact dose volume for glucose was also calculated separately for each individual animal.
Blood glucose was measured at 15, 30, 45, 60, and 90 minutes post-glucose administration via the snipped tail. If an animal reached a value of "HI", the upper limit of the glucometer (600mg/dl) was substituted as the blood glucose value and the study was analyzed as normal with no exclusions. If 50% or more of any treatment group reaches a "HI" value at least once, the study was considered invalid and repeated. Glucose values were typed into an EXCEL spreadsheet where they were used to calculate glucose AUC and delta AUC post-compound and post-glucose. The glucose excursion curves and the different versions of the AUC's were graphed in GraphPad Prism 5.
Note: All statistics completed in this study were completed using the statistical software package GraphPad Prism 5. Standard procedures for analyzing data sets from screening GPR120 compounds in DIO mouse OGTT's were as listed here below. In addition to the statistics that were run using GraphPad Prism 5, Microsoft Excel was used to calculate the percent changes in AUC from vehicle groups as detailed below.
Change from -30 to 0 BSLN Glucose, Raw Glucose AUC -30 to 90min, Delta Glucose AUC -30 to 90min, Raw Glucose AUC 0 to 90min, Delta Glucose AUC 0 to 90min were analyzed using Column Statistics Analysis, with mean values used to calculate % change from the vehicle mean group, as well as mean, SEM and / or % change from vehicle, where appropriate; and using One-Way ANOVA w/ a Tukey Post-Test (Comparing All Pairs of Columns) with each treatment group examined to see if it was statistically significant compared to vehicle (*= P<0.05, **= P<0.01, ***= P<0.001).

Row | Compound | GPR120 C57bl6 Mouse IPGTT Results ([1]; 10.0 mg/kg) | DIO Lowering Glucose AUC ([2]; 3 mg/kg) [%] | DIO Lowering Glucose AUC ([2]; 10 mg/kg) [%] | other results
1 | Cc1c(CCC(=O)O)ccc(OCc2cccn2-c2ccc(Cl)cc2)c1C [Compound 1, 3-(4-{[1-(4-Chlorophenyl)-1H-pyrrol-2-yl]methoxy}-2,3-dimethylphenyl)propanoic acid] | – | – | – | GPR120 C57bl6 Mouse IPGTT Results ([1]; 30.0 mg/kg): not different from vehicle
2 | COc1ccc(-n2ccc(C(F)(F)F)c2COc2ccc(CCCO)c(F)c2F)cc1 [Compound 27, 3-(2,3-Difluoro-4-{[1-(4-methoxyphenyl)-3-(trifluoromethyl)-1H-pyrrol-2-yl]methoxy}phenyl)propan-1-ol] | -16 | – | – | –
3 | OCCCc1cc(F)c(OCc2c(C(F)(F)F)ccn2-c2ccc(Br)cc2)c(F)c1 [Compound 30, 3-(4-{[1-(4-Bromophenyl)-3-(trifluoromethyl)-1H-pyrrol-2-yl]methoxy}-3,5-difluorophenyl)propan-1-ol] | -53 | – | – | C57bl6 Mouse IPGTT dose response ([1]; 1 mg/kg): 1%; C57bl6 Mouse IPGTT dose response ([1]; 3 mg/kg): -14%; C57bl6 Mouse IPGTT dose response ([1]; 10 mg/kg): -48%
4 | COc1ccc(-n2ccc(C(F)(F)F)c2COc2c(F)cc(CCCO)cc2F)cc1 [Compound 31, 3-(3,5-Difluoro-4-{[1-(4-methoxyphenyl)-3-(trifluoromethyl)-1H-pyrrol-2-yl]methoxy}phenyl)propan-1-ol] | -43 | – | – | C57bl6 Mouse IPGTT dose response ([1]; 1 mg/kg): 2%; C57bl6 Mouse IPGTT dose response ([1]; 3 mg/kg): -39%; C57bl6 Mouse IPGTT dose response ([1]; 10 mg/kg): -44%
5 | CCc1ccc(-n2ccc(C(F)(F)F)c2COc2c(F)cc(CCCO)cc2F)cc1 [Compound 33, 3-(4-{[1-(4-Ethylphenyl)-3-(trifluoromethyl)-1H-pyrrol-2-yl]methoxy}-3,5-difluorophenyl)propan-1-ol] | -26 | – | – | –
6 | CCc1ccc(-n2ccc(C(F)(F)F)c2COc2ccc(CCC(=O)O)c(F)c2F)cc1 [Compound 34, 3-(4-{[1-(4-Ethylphenyl)-3-(trifluoromethyl)-1H-pyrrol-2-yl]methoxy}-2,3-difluorophenyl)propanoic acid] | – | -27 | -50 | –
7 | Cc1ccc(-n2ccc(C(F)(F)F)c2COc2c(F)cc(CCCO)cc2F)cc1 [Compound 37, 3-(3,5-Difluoro-4-{[1-(4-methylphenyl)-3-(trifluoromethyl)-1H-pyrrol-2-yl]methoxy}phenyl)propan-1-ol] | -30 | – | – | –
8 | Cc1ccc(-n2ccc(C(F)(F)F)c2COc2c(F)cc(CCC(=O)O)cc2F)cc1 [Compound 39, 3-(3,5-Difluoro-4-{[1-(4-methylphenyl)-3-(trifluoromethyl)-1H-pyrrol-2-yl]methoxy}phenyl)propanoic acid] | – | -59 | -68 | –
9 | O=C(O)CCc1cc(F)c(OCc2c(C(F)(F)F)ccn2-c2ccc(Cl)cc2)c(F)c1 [Compound 70, 3-(4-{[1-(4-Chlorophenyl)-3-(trifluoromethyl)-1H-pyrrol-2-yl]methoxy}-3,5-difluorophenyl)propanoic acid] | – | -79 | -82 | Lowering Glucose AUC ([2]; 0.1 mg/kg): 9%; Lowering Glucose AUC ([2]; 0.3 mg/kg): -8%; Lowering Glucose AUC ([2]; 1.0 mg/kg): -54%; Lowering Glucose AUC ([2]; 3.0 mg/kg): -73%
